Experimental data taken from publication PMC11012124, “Synthesis of Novel Triazine-Based Chalcones and 8,9-dihydro-7H-pyrimido[4,5-b][1,4]diazepines as Potential Leads in the Search of Anticancer, Antibacterial and Antifungal Agents” (International Journal of Molecular Sciences, 2024).
Values after ≈ are worked out from the molar mass of the structure shown.

Columns and labels:
[1] = test system: K-562; experiment: cells; settings: Homo sapiens, K562, 48 h; for GI50: K-562, 48 h; for CC50: read-out: LC50
[2] = test system: SK-MEL-5; experiment: cells; settings: Homo sapiens, SK-MEL-5, 48 h; for CC50: read-out: LC50
[3] = test system: Trichophyton mentagrophytes (CCC 202-2000); experiment: Antifungal broth microdilution (CLSI); assay type: cell-based; settings: Tm: Trichophyton mentagrophytes
Method in brief: (§1)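 Broth microdilution followed CLSI M27-A3 for yeasts and the filamentous-fungi reference method, in 200 μL final volume with DMSO-matched growth controls. Plates were incubated in the dark and humid at 30 °C for a time suited to each fungus; testing was done in triplicate.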

[4] = test system: Cryptococcus neoformans (ATCC 32264); experiment: Antifungal broth microdilution (CLSI); assay type: cell-based; settings: ATCC32264; Cn: Cryptococcus neoformans
Method in brief: as §1

[5] = test system: Candida albicans (ATCC 10231); experiment: Antifungal broth microdilution (CLSI); assay type: cell-based; settings: ATCC10231; Ca: Candida albicans
Method in brief: as §1

[6] = test system: A. flavus (ATCC 9170); experiment: Antifungal broth microdilution (CLSI); assay type: cell-based; settings: ATCC9170; Afl: Aspergillus flavus
Method in brief: as §1

[7] = test system: Trichophyton rubrum (CCC 134-2000); experiment: Antifungal broth microdilution (CLSI); assay type: cell-based; settings: Tr: Trichophyton rubrum
Method in brief: as §1

[8] = test system: A. niger (ATCC 9029); experiment: Antifungal broth microdilution (CLSI); assay type: cell-based; settings: ATCC9029; Ani: Aspergillus niger
Method in brief: as §1

[9] = test system: MDA-MB-435; experiment: cells; settings: Homo sapiens, MDA-MB-435, 48 h; for CC50: read-out: LC50
[10] = test system: SF-295; experiment: cells; settings: Homo sapiens, SF-295, 48 h; for CC50: read-out: LC50
[11] = test system: NCI-H226; experiment: cells; settings: Homo sapiens, NCI-H226, 48 h; for CC50: read-out: LC50
[12] = test system: HL-60(TB); experiment: cells; settings: Homo sapiens, HL-60, 48 h; for CC50: read-out: LC50
[13] = test system: 786-0; experiment: cells; settings: Homo sapiens, 786-0, 48 h; for CC50: read-out: LC50
[14] = test system: IGROV1; experiment: cells; settings: Homo sapiens, IGROV-1, 48 h; for CC50: read-out: LC50
[15] = test system: SF-268; experiment: cells; settings: Homo sapiens, SF-268, 48 h; for CC50: read-out: LC50
[16] = test system: TK-10; experiment: cells; settings: Homo sapiens, TK-10, 48 h; for CC50: read-out: LC50
[17] = test system: SR; experiment: cells; settings: Homo sapiens, 48 h
[18] = test system: LOX IMVI; experiment: cells; settings: Homo sapiens, 48 h; for CC50: read-out: LC50, LOX IMVI, 48 h
[19] = test system: NCI-H23; experiment: cells; settings: Homo sapiens, NCI-H23, 48 h; for CC50: read-out: LC50
[20] = test system: HOP-92; experiment: cells; settings: Homo sapiens, HOP-92, 48 h; for CC50: read-out: LC50
[21] = test system: OVCAR-4; experiment: cells; settings: Homo sapiens, OVCAR-4, 48 h; for CC50: read-out: LC50
[22] = test system: UACC-257; experiment: cells; settings: Homo sapiens, UACC-257, 48 h; for CC50: read-out: LC50
[23] = test system: M. tuberculosis ATCC 27294; experiment: Antitubercular broth microdilution MIC; assay type: cell-based; settings: Mycobacterium tuberculosis; M. tuberculosis ATCC 27294 (H37Rv); read-out: Minimum inhibitory concentration (MIC)
[24] = test system: OVCAR-3; experiment: cells; settings: Homo sapiens, OVCAR-3, 48 h; for CC50: read-out: LC50
[25] = test system: SN12C; experiment: cells; settings: Homo sapiens, 48 h; for CC50: read-out: LC50
[26] = test system: MCF7; experiment: cells; settings: Homo sapiens, MCF7, 48 h; for CC50: read-out: LC50
[27] = test system: OVCAR-5; experiment: cells; settings: Homo sapiens, OVCAR-5, 48 h; for CC50: read-out: LC50
[28] = test system: SK-MEL-2; experiment: cells; settings: Homo sapiens, SK-MEL-2, 48 h; for CC50: read-out: LC50
[29] = test system: CCRF-CEM; experiment: cells; settings: Homo sapiens, 48 h; for CC50: read-out: LC50
[30] = test system: NCI-H460; experiment: cells; settings: Homo sapiens, NCI-H460, 48 h; for CC50: read-out: LC50
[31] = test system: A498; experiment: cells; settings: Homo sapiens, A498, 48 h; for CC50: read-out: LC50
[32] = test system: NCI/ADR-RES; experiment: cells; settings: Homo sapiens, 48 h; for CC50: read-out: LC50

COc1cc(C2CC(c3ccc(Cl)cc3)=Nc3c(N)nc(N)nc3N2)ccc1Oc1nc(Nc2ccc(F)cc2)nc(N(C)C)n1 (centres unmarked) [29e]
GI50 [1]: 4.5 µM
CC50 [1]: > 100 µM
GI50 [2]: 17.2 µM
CC50 [2]: > 100 µM
MIC [3]: > 250 µg/mL
MIC [4]: > 250 µg/mL
MIC [5]: > 250 µg/mL
MIC [6]: > 250 µg/mL
MIC [7]: 62.5 µg/mL (≈ 97.3 µM)
MIC [8]: > 250 µg/mL
GI50 [9]: > 100 µM
CC50 [9]: > 100 µM
GI50 [10]: > 100 µM
CC50 [10]: > 100 µM
GI50 [11]: > 100 µM
CC50 [11]: > 100 µM
GI50 [12]: 44.7 µM
CC50 [12]: > 100 µM
GI50 [13]: > 100 µM
CC50 [13]: > 100 µM
CC50 [14]: > 100 µM
GI50 [15]: > 100 µM
CC50 [15]: > 100 µM
GI50 [16]: > 100 µM
CC50 [16]: > 100 µM
GI50 [17]: 3.41 µM
CC50 ([17]; read-out: LC50): > 100 µM
GI50 [18]: 47.8 µM
CC50 [18]: > 100 µM
GI50 [19]: > 100 µM
CC50 [19]: > 100 µM
GI50 [20]: 3 µM
CC50 [20]: > 100 µM
GI50 [21]: 18.9 µM
CC50 [21]: > 100 µM
GI50 [22]: > 100 µM
CC50 [22]: > 100 µM
MIC [23]: 1.2 µg/mL (≈ 1.87 µM)
GI50 [24]: > 100 µM
CC50 [24]: > 100 µM
GI50 [25]: > 100 µM
CC50 [25]: > 100 µM
GI50 [26]: 9.9 µM
CC50 [26]: > 100 µM
GI50 [27]: > 100 µM
CC50 [27]: > 100 µM
GI50 [28]: > 100 µM
CC50 [28]: > 100 µM
CC50 [29]: > 100 µM
GI50 [30]: 42.3 µM
CC50 [30]: > 100 µM
GI50 [31]: > 100 µM
CC50 [31]: > 100 µM

CN(C)c1nc(NCCNS(=O)(=O)c2ccc(C(=O)/C=C/c3ccc(Cl)cc3)cc2)nc(Nc2ccc(F)cc2)n1 [24e]
GI50 [1]: 3.29 µM
CC50 [1]: > 100 µM
GI50 [2]: 5.89 µM
CC50 [2]: 18.8 µM
MIC [3]: 125 µg/mL (≈ 210 µM)
MIC [4]: > 250 µg/mL
MIC [5]: > 250 µg/mL
MIC [6]: > 250 µg/mL
MIC [7]: > 250 µg/mL
MIC [8]: > 250 µg/mL
GI50 [9]: 3.8 µM
CC50 [9]: 14 µM
GI50 [10]: 6.11 µM
CC50 [10]: 19.8 µM
GI50 [11]: 6.14 µM
CC50 [11]: 24.3 µM
GI50 [12]: 4.39 µM
CC50 [12]: > 100 µM
GI50 [13]: 7.28 µM
CC50 [13]: 20.2 µM
GI50 [14]: 8.58 µM
CC50 [14]: 21.4 µM
GI50 [15]: 6.21 µM
CC50 [15]: 23.5 µM
GI50 [16]: 11.7 µM
CC50 [16]: 30.3 µM
GI50 [18]: 2.74 µM
CC50 [18]: 9.16 µM
GI50 [19]: 10.7 µM
CC50 [19]: 23.4 µM
GI50 [20]: 3.83 µM
CC50 [20]: 14.7 µM
GI50 [32]: 5.49 µM
CC50 [32]: 18.4 µM
GI50 [21]: 5.92 µM
CC50 [21]: 22 µM
GI50 [22]: 8.36 µM
CC50 [22]: 21.8 µM
MIC [23]: 25 µg/mL (≈ 41.9 µM)
GI50 [24]: 3.16 µM
CC50 [24]: 11.9 µM
GI50 [25]: 3.79 µM
CC50 [25]: 15.9 µM
GI50 [26]: 2.28 µM
CC50 [26]: 6.33 µM
GI50 [27]: 10.7 µM
CC50 [27]: 22.6 µM
GI50 [28]: 5.47 µM
CC50 [28]: 19.5 µM
GI50 [29]: 3.75 µM
CC50 [29]: > 100 µM
GI50 [30]: 3.38 µM
CC50 [30]: 13.8 µM
GI50 [31]: 10.5 µM
CC50 [31]: 23.1 µM

CN(C)c1nc(NCCNS(=O)(=O)c2ccc(C3=Nc4c(N)nc(N)nc4NC(c4ccc(C(F)(F)F)cc4)C3)cc2)nc(Nc2ccc(F)cc2)n1 (centres unmarked) [31g]
GI50 [1]: 3.51 µM
CC50 [1]: 86 µM
GI50 [2]: 10.4 µM
CC50 [2]: 21.3 µM
MIC [3]: 62.5 µg/mL (≈ 83.1 µM)
MIC [4]: > 250 µg/mL
MIC [5]: > 250 µg/mL
MIC [6]: > 250 µg/mL
MIC [7]: 250 µg/mL (≈ 333 µM)
MIC [8]: > 250 µg/mL
GI50 [9]: 9.13 µM
CC50 [9]: 86 µM
GI50 [10]: 12.9 µM
CC50 [10]: 86 µM
GI50 [11]: 37.3 µM
CC50 [11]: 86 µM
GI50 [12]: 4.07 µM
CC50 [12]: 86 µM
GI50 [13]: 10.1 µM
CC50 [13]: 39.8 µM
GI50 [14]: 11.2 µM
CC50 [14]: 86 µM
GI50 [15]: 11.2 µM
CC50 [15]: 86 µM
GI50 [16]: > 86 µM
CC50 [16]: > 86 µM
GI50 [18]: 3.14 µM
CC50 [18]: 12 µM
GI50 [19]: 27.7 µM
CC50 [19]: 86 µM
GI50 [20]: 2.99 µM
CC50 [20]: 16.9 µM
GI50 [32]: > 86 µM
CC50 [32]: > 86 µM
GI50 [21]: 25 µM
CC50 [21]: 86 µM
GI50 [22]: 23.3 µM
CC50 [22]: 86 µM
MIC [23]: 5 µg/mL (≈ 6.65 µM)
GI50 [24]: 11.9 µM
CC50 [24]: 86 µM
GI50 [26]: 2.87 µM
CC50 [26]: 21 µM
GI50 [27]: 19.9 µM
CC50 [27]: 86 µM
GI50 [28]: 10.8 µM
CC50 [28]: 24.7 µM
GI50 [29]: 3.24 µM
CC50 [29]: 86 µM
GI50 [30]: 5.49 µM
CC50 [30]: 86 µM
GI50 [31]: 22.2 µM
CC50 [31]: 77.4 µM
